The source of these data is patent publication US20090069237A1, “METHODS AND COMPOSITIONS FOR TREATING CONDITIONS” (priority 2007, published 2009).

Peptide text beside a SMILES is read from it.

Data set [1] is classed as physicochemical. As to the method: The test article was SEQ ID NO: 1, a white powder, which was delivered in 0.9% saline. The test article formulations were prepared on the day of study and kept at room temperature until dosing. 100 mg/kg at 1 mL/kg=100 mg/mL 1.4 mL of saline added to 141.5 mg of test article, soluble.
For data set [2] the following is noted: rat, in vivo. From the text:
Pain is basically managed by two classes of drugs.

Data set [3] deals with Pseudomonas syringae pv tomato, DC3000. In words: Arabidopsis inoculated with virulent pathogen Pst DC3000, disease symptoms. Type of data set: in vivo, Arabidopsis ecotype Columbia (Col-0). The conditions noted are these: 20 μl salicylic acid 1 mM and 20 μl SEQ ID NO: 15 applied together to the leaves. On the procedure: Seeds of Arabidopsis ecotype Columbia (Col-0) were planted in potting soil. Plants were cultivated in a growth chamber with 10-h d (200 μmol m^−2s^−1 at 22° C.) and 14-h night (18° C.) cycles and 80% RH. Once a week plants were supplied with water and modified one-half strength Hoagland nutrient solution: 2 mM KNO 5 mM Ca(NO3)2 and trace elements, pH 7.
A virulent plant pathogen, Pst Pseudomonas syringae pv tomato, DC3000 was grown at 28° C. on King's medium B containing 40 mg/L tetracycline. Plants were inoculated with 1×10^7 cfu/ml of the pathogen in 0.01% Silwet L77 (v/v) (a surfactant) and distilled water 5 weeks after sowing. The bacterial suspension or a control solution (0.01% Silwet L77 in water) was then sprayed on the plant once.
Disease symptoms in Arabidopsis are water-soaked, spreading lesions, sometimes surrounded by chlorotic margin that eventually lead to yield loss and plant death.
To test the efficacy of SEQ ID NO: 15, some healthy and some disease plants were sprayed with salicylic acid in 0.01%. Silwet L77; some healthy and some disease plants were sprayed with SEQ ID NO: 15 in 0.01%. Silwet L77, and some healthy and some disease plants were sprayed with salicylic acid in combination with SEQ ID NO: 15 in 0.01%. Silwet L77. A control group of some healthy and some disease plants were sprayed with water in 0.01%. Silwet L77. […]

In data set [4] the test system is Sauromatum guttatum appendix. The experiment in a line: Heat production by Sauromatum guttatum appendix sections, thermocouple recording. To be noted: second experiment, up to 50 μM, data not shown. As to the method: In one example, using Sauromatum guttatum as the experimental module, on the day of inflorescence-opening, the Sauromatum appendix (a 20-40 cm-long, slender organ) becomes warm reaching a 32° C. temperature (Skubatz et al., 1991, Plant Physiol. 95:1084-1088). The heat generated by the appendix is generated by the mitochondria. This mitochondrial activity can be triggered by the addition of phenolic compounds, including but not limited to, salicylic acid, aspirin, and 2,6-dihydroxybenzoic acid. Test agents can be applied to the plant and the plant's temperature may be monitored in vivo.
FIG. 4 illustrates modulation of heat generated by aspirin (ASA) in Sauromatum guttatum appendix in the presence of various opioid peptides and the Alzheimer's peptide, Aβ 1-42. One day before heat-production, sections of the appendix were placed in different aqueous solutions containing ASA with or without an opioid peptide. […] Temperature was recorded with thermocouples attached to the section every 5 min. […]
FIG. 5 illustrates modulation of heat generated by salicylic acid (SA) in the presence of human opioid peptides (β-Endorphin, SEQ ID NO: 19 and Neuropeptide AF, SEQ ID NO: 44) and, the Alzheimer's peptide, Aβ 1-42, SEQ ID NO: 49, and, a plant virulent bacterial pathogen (Pst DC3000). […] Temperature was recorded with thermocouples attached to the sections every 5 min. […]

`CC(C)C[C@H](NC(=O)[C@@H](N)Cc1ccccc1)C(=O)N1CCC[C@H]1C(=O)N[C@@H](CO)C(=O)O` [SEQ ID NO: 1, Phe-Leu-Pro-Ser] (H-FLPS-OH; N-terminus and C-terminus assumed): the solubility in saline result in data set [1] was “soluble”. Also, in data set [2], the “effect on brain function” value is recorded as “does not adversely affect brain function” and the feeding behavior result is “did not invoke an abnormal feeding behavior”.
For `O=C(O)c1ccccc1O` [salicylic acid], in data set [3], the “systemic resistance to the virulent bacteria” value is recorded as “enough to trigger systemic resistance”.
As for FLPSEFGVDVDR [SEQ ID NO: 2], the “heat generation by the peptide” value in data set [4] is given as “did not generate heat”.
Turning to YGGFL [SEQ ID NO: 15], the “systemic resistance to the virulent bacteria” value in data set [3] was “enough to trigger systemic resistance”.
